# Measurements from patent US6737383B1, “Herbicidal oxadiazolidines” (priority 1999, dated 2004).
# Legend:
# [1] = tested on: scentless chamomile; assay: Test E scentless chamomile; assay type: in vivo, Matricaria inodora; settings: Postemergence; for Plant response rating, Scentless chamo: 0 to 100 scale; for Scentless chamo plant response rating: Rate 250 g/ha, 0 to 100 scale where 0 is no effect and 100 is complete control
# Protocol: (§1) Compounds evaluated in this test were formulated in a non-phytotoxic solvent mixture which included a surfactant and applied to plants that were in the 1- to 4-leaf stage (postemergence application). A mixture of sandy loam soil and greenhouse potting mix in a 60:40 ratio was used for the postemergence test.
# (§2) Plantings of these crops and weed species were adjusted to produce plants of appropriate size for the postemergence test. All plant species were grown using normal greenhouse practices. Crop and weed species include annual bluegrass (Poa annua), blackgrass (Alopecurus myosuroides), black nightshade (Solanum nigra), chickweed (Stellaria media), common poppy (Papaver rhoeas), deadnettle (Lamium amplexicaule), downy brome (Bromus tectorum), field violet (Viola arvensis), galium (Galium aparine), green foxtail (Setaria viridis), Italian ryegrass (Lolium multiflorum), jointed goatgrass (Aegilops cylindrica), kochia (Kochia scoparia), lambsquarters (Chenopodium album), littleseed canarygrass (Phalaris minor), rape (Brassica napus), redroot pigweed (Amaranthus retroflexus), Russian thistle (Salsola kali), scentless chamomile (Matricaria inodora), spring barley (Hordeum vulgare), sugar beet (Beta vulgaris), sunflower (Helianthus annuus), ivyleaf speedwell (Veronica hederaefolia), spring wheat (Triticum aestivum), winter wheat (Triticum aestivum), wild buckwheat (Polygonum convolvulus), wild mustard (Sinapis arvensis), wild oat (Avena fatua), windgrass (Apera spica-venti) and winter barley (Hordeum vulgare).
# (§3) Treated plants and untreated controls were maintained in a greenhouse for approximately 21 to 28 days, after which all treated plants were compared to untreated controls and visually evaluated. […] A dash response (-) means no test result.
# [2] = tested on: deadnettle; assay: Test E deadnettle; assay type: in vivo, Lamium amplexicaule; settings: Preemergence; for Deadnettle plant response rating (0 to 100 scale): Rate 250 g/ha
# [3] = tested on: sugar beet; assay: Test E sugar beet; assay type: in vivo, Beta vulgaris; settings: Postemergence; for Plant response rating, Sugar beet: 0 to 100 scale; for Sugar beet plant response rating: Rate 250 g/ha, 0 to 100 scale where 0 is no effect and 100 is complete control
# Protocol: as §1, §2, §3
# [4] = tested on: spring wheat; assay: Test E spring wheat; assay type: in vivo, Triticum aestivum; settings: Postemergence; for Plant response rating, Spring Wheat: 0 to 100 scale; for Spring Wheat plant response rating: Rate 250 g/ha, 0 to 100 scale where 0 is no effect and 100 is complete control
# Protocol: as §1, §2, §3
# [5] = tested on: field violet; assay: Test E field violet; assay type: in vivo, Viola arvensis; settings: Preemergence; for Field violet plant response rating (0 to 100 scale): Rate 250 g/ha
# [6] = tested on: ivyleaf morningglory; assay: Test C postemergence ivyleaf morningglory; assay type: in vivo, Ipomoea hederacea; settings: 0 to 100 scale, 0 no effect, 100 complete control
# Method in brief: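 Compounds in a non-phytotoxic solvent mixture with surfactant were sprayed postemergence on greenhouse-grown plants sized for treatment, in 60:40 sandy loam soil:potting mix. After about 14 to 21 days, injury was rated visually against untreated controls on a 0–100 scale (0 no effect, 100 complete control).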
# [7] = tested on: winter barley; assay: Test E winter barley; assay type: in vivo, Hordeum vulgare; settings: Postemergence; for Plant response rating, Barley (winter): 0 to 100 scale; for Barley (winter) plant response rating: Rate 250 g/ha, 0 to 100 scale where 0 is no effect and 100 is complete control
# Protocol: as §1, §2, §3
# [8] = tested on: johnsongrass; assay: Test C postemergence johnsongrass; assay type: in vivo, Sorghum halepense; settings: 0 to 100 scale, 0 no effect, 100 complete control
# Protocol: as §1, with “grown for various periods of time before treatment” for “in the 1- to 4-leaf stage”
# Plantings of these crops and weed species were adjusted to produce plants of appropriate size for the postemergence test. All plant species were grown using normal greenhouse practices. Crop and weed species include arrowleaf sida (Sida rhombifolia), barnyardgrass (Echinochloa crus-galli), cocklebur (Xanthium strumarium), common ragweed (Ambrosia elatior), corn (Zea mays), cotton (Gossypium hirsutum), eastern black nightshade (Solanum ptycanthum), fall panicum (Panicum dichotomiflorum), field bindweed (Convolvulus arvensis), giant foxtail (Setaria faberii), hairy beggarticks (Bidens pilosa), ivyleaf morningglory (Ipomoea hederacea), johnsongrass (Sorghum halepense), ladysthumb smartweed (Polygonum persicaria), lambsquarters (Chenopodium album), large crabgrass (Digitaria sanguinalis), purple nutsedge (Cyperus rotundus), redroot pigweed (Amaranthus retroflexus), soybean (Glycine max), surinam grass (Brachiaria decumbens), velvetleaf (Abutilon theophrasti) and wild poinsettia (Euphorbia heterophylla).
# Treated plants and untreated controls were maintained in a greenhouse for approximately 14, to 21 days, after which all treated plants were compared to untreated controls and visually evaluated. Plant response ratings, summarized in Table C, were based upon a 0 to 100 scale where 0 was no effect and 100 was complete control. A dash response (−) means no test result.
# [9] = tested on: field violet; assay: Test E field violet; assay type: in vivo, Viola arvensis; settings: Postemergence; for Plant response rating, Field violet: 0 to 100 scale; for Field violet plant response rating: Rate 250 g/ha, 0 to 100 scale where 0 is no effect and 100 is complete control
# Protocol: as §1, §2, §3
# [10] = tested on: littleseed canarygrass; assay: Test E littleseed canarygrass; assay type: in vivo, Phalaris minor; settings: Postemergence; for Plant response rating, LS canarygrass: 0 to 100 scale; for LS canarygrass plant response rating: Rate 250 g/ha, 0 to 100 scale where 0 is no effect and 100 is complete control
# Protocol: as §1, §2, §3
# [11] = tested on: wild buckwheat; assay: Test E wild buckwheat; assay type: in vivo, Polygonum convolvulus; settings: Postemergence; for Plant response rating, Wild buckwheat: 0 to 100 scale; for Wild buckwheat plant response rating: Rate 250 g/ha, 0 to 100 scale where 0 is no effect and 100 is complete control
# Protocol: as §1, §2, §3
# [12] = tested on: sandbur; assay: Test D sandbur; assay type: in vivo, Cenchrus echinatus; settings: Postemergence, 0 to 100 scale
# [13] = tested on: surinam grass; assay: Test D surinam grass; assay type: in vivo, Brachiaria decumbens; settings: Postemergence, 0 to 100 scale
# [14] = tested on: tall mallow; assay: Test D tall mallow; assay type: in vivo, Malva sylvestris; settings: Postemergence, 0 to 100 scale
# [15] = tested on: Green foxtail; assay: Test D green foxtail; assay type: in vivo; settings: Postemergence, 0 to 100 scale, 0 no injury, 100 complete control
# [16] = tested on: common ragweed; assay: Test D common ragweed; assay type: in vivo, Ambrosia elatior; settings: Postemergence, 0 to 100 scale
# [17] = tested on: Spanishneedles; assay: Test D Spanishneedles; assay type: in vivo, Bidens bipinnata; settings: Postemergence, 0 to 100 scale
# [18] = Rate 125 g/ha, 0 to 100 scale (0 no effect, 100 complete control)
# [19] = Rate 16 g/ha, 0 no injury, 100 complete control
# [20] = Rate 32 g/ha, 0 no injury, 100 complete control
# [21] = Rate 64 g/ha, 0 no injury, 100 complete control
# [22] = Rate 125 g/ha, 0 no injury, 100 complete control
# [23] = Rate 125 g/ha, 0 is no effect, 100 is complete control
# [24] = Rate 500 g/ha, 0 is no effect, 100 is complete control
# [25] = Rate 500 g/ha, 0 to 100 scale where 0 is no effect and 100 is complete control
smiles,measurement,setting,value
CC(C)N(C(=O)n1oc(=O)n(C)c1=O)c1ccc(F)cc1 [Compound 138],"Plant response rating, Scentless chamo",[1]; Rate 125 g/ha,20
same,Scentless chamo plant response rating,[1],0
same,"Plant response rating, Deadnettle",[2]; [18],65
same,Deadnettle plant response rating (0 to 100 scale),[2],70
same,"Plant response rating, Sugar beet",[3]; Rate 125 g/ha,30
same,Sugar beet plant response rating,[3],10
same,"Plant response rating, Spring Wheat",[4]; Rate 125 g/ha,0
same,Spring Wheat plant response rating,[4],0
same,"Plant response rating, Field violet",[5]; [18],50
same,Field violet plant response rating (0 to 100 scale),[5],70
same,Plant response rating I. morningglory,[6]; Rate 140 g/ha,0
same,Plant response rating I. morningglory,[6]; Rate 280 g/ha,0
same,Plant response rating I. morningglory,[6]; Rate 560 g/ha,0
same,Plant response rating I. morningglory,[6]; Rate 1120 g/ha,0
same,"Plant response rating, Barley (winter)",[7]; Rate 125 g/ha,0
same,Barley (winter) plant response rating,[7],0
same,"Plant response rating, Johnsongrass",[8]; Rate 140 g/ha,0
same,"Plant response rating, Johnsongrass",[8]; Rate 280 g/ha,20
same,"Plant response rating, Johnsongrass",[8]; Rate 560 g/ha,60
same,"Plant response rating, Johnsongrass",[8]; Rate 1120 g/ha,90
same,"Plant response rating, Field violet",[9]; Rate 125 g/ha,10
same,Field violet plant response rating,[9],30
same,"Plant response rating, LS canarygrass",[10]; Rate 125 g/ha,10
same,LS canarygrass plant response rating,[10],10
same,"Plant response rating, Wild buckwheat",[11]; Rate 125 g/ha,0
same,Wild buckwheat plant response rating,[11],0
CC(C)N(C(=O)n1oc(=O)n(C2CCCCCC2)c1=O)c1ccc(F)cc1F [Compound 342],"Plant response rating, Sandbur",[12]; [19],0
same,"Plant response rating, Sandbur",[12]; [20],0
same,Sandbur plant response rating,[12]; [21],0
same,"Plant response rating, Sandbur",[12]; Rate 250 g/ha,0
same,"Plant response rating, Surinam grass",[13]; [19],0
same,"Plant response rating, Surinam grass",[13]; [20],0
same,Surinam grass plant response rating,[13]; [21],20
same,Surinam grass plant response rating,[13]; [22],30
same,"Plant response rating, Surinam grass",[13]; Rate 250 g/ha,40
same,"Plant response rating, Tall Mallow",[14]; [19],0
same,"Plant response rating, Tall Mallow",[14]; [20],0
same,Tall Mallow plant response rating,[14]; [21],0
same,Tall Mallow plant response rating,[14]; [22],0
same,"Plant response rating, Tall Mallow",[14]; Rate 250 g/ha,10
same,"Plant response rating, Green foxtail",[15]; Rate 16 g/ha,0
same,"Plant response rating, Green foxtail",[15]; Rate 32 g/ha,0
same,"Plant response rating, C. ragweed",[16]; [20],0
same,"Plant response rating, C. ragweed",[16]; [21],0
same,"Plant response rating, C. ragweed",[16]; [22],0
same,"Plant response rating, C. ragweed",[16]; Rate 250 g/ha,100
same,"Plant response rating, Spanishneedles",[17]; [19],0
same,"Plant response rating, Spanishneedles",[17]; [20],0
same,Spanishneedles plant response rating,[17]; [21],0
same,Spanishneedles plant response rating,[17]; [22],0
same,"Plant response rating, Spanishneedles",[17]; Rate 250 g/ha,0
CC(C)N(C(=O)n1oc(=O)n(C2CC2)c1=O)c1ccc(F)cc1 [Compound 242],"Plant response rating, Scentless chamo",[1]; Rate 62 g/ha,55
same,"Plant response rating, Scentless chamo",[1]; [23],40
same,Scentless chamo plant response rating,[1],0
same,"Plant response rating, Scentless chamo",[1]; [24],20
same,Deadnettle plant response rating (0 to 100 scale),[2],70
same,"Plant response rating, Deadnettle",[2]; [25],100
same,"Plant response rating, Sandbur",[12]; [19],20
same,"Plant response rating, Sandbur",[12]; [20],30
same,Sandbur plant response rating,[12]; [21],50
same,Sandbur plant response rating,[12]; [22],100
same,"Plant response rating, Sandbur",[12]; Rate 250 g/ha,100
same,"Plant response rating, Surinam grass",[13]; [19],0
same,"Plant response rating, Surinam grass",[13]; [20],30
same,Surinam grass plant response rating,[13]; [21],100
same,Surinam grass plant response rating,[13]; [22],100
same,"Plant response rating, Surinam grass",[13]; Rate 250 g/ha,100
same,"Plant response rating, Sugar beet",[3]; Rate 62 g/ha,50
same,"Plant response rating, Sugar beet",[3]; [23],50
same,Sugar beet plant response rating,[3],40
same,"Plant response rating, Sugar beet",[3]; [24],30
same,"Plant response rating, Spring Wheat",[4]; Rate 62 g/ha,15
same,"Plant response rating, Spring Wheat",[4]; [23],20
same,Spring Wheat plant response rating,[4],10
same,"Plant response rating, Spring Wheat",[4]; [24],20
same,"Plant response rating, Field violet",[5]; [18],50
same,Field violet plant response rating (0 to 100 scale),[5],65
same,"Plant response rating, Field violet",[5]; [25],100
same,"Plant response rating, Tall Mallow",[14]; [19],0
same,"Plant response rating, Tall Mallow",[14]; [20],0
same,Tall Mallow plant response rating,[14]; [21],50
same,Tall Mallow plant response rating,[14]; [22],90
same,"Plant response rating, Tall Mallow",[14]; Rate 250 g/ha,100
same,Plant response rating I. morningglory,[6]; Rate 140 g/ha,0
same,Plant response rating I. morningglory,[6]; Rate 280 g/ha,0
same,Plant response rating I. morningglory,[6]; Rate 560 g/ha,0
same,Plant response rating I. morningglory,[6]; Rate 1120 g/ha,0
same,"Plant response rating, Barley (winter)",[7]; Rate 62 g/ha,20
same,"Plant response rating, Barley (winter)",[7]; [23],0
same,Barley (winter) plant response rating,[7],10
same,"Plant response rating, Barley (winter)",[7]; [24],20
same,"Plant response rating, Johnsongrass",[8]; Rate 140 g/ha,45
same,"Plant response rating, Johnsongrass",[8]; Rate 280 g/ha,45
same,"Plant response rating, Johnsongrass",[8]; Rate 560 g/ha,60
same,"Plant response rating, Johnsongrass",[8]; Rate 1120 g/ha,90
same,"Plant response rating, Green foxtail",[15]; Rate 16 g/ha,30
same,"Plant response rating, Green foxtail",[15]; Rate 32 g/ha,100
same,"Plant response rating, C. ragweed",[16]; [19],50
same,"Plant response rating, C. ragweed",[16]; [20],30
same,"Plant response rating, C. ragweed",[16]; [21],30
same,"Plant response rating, C. ragweed",[16]; [22],90
same,"Plant response rating, C. ragweed",[16]; Rate 250 g/ha,100
same,"Plant response rating, Field violet",[9]; Rate 62 g/ha,30
same,"Plant response rating, Field violet",[9]; [23],60
same,Field violet plant response rating,[9],0
same,"Plant response rating, Field violet",[9]; [24],40
same,"Plant response rating, LS canarygrass",[10]; Rate 62 g/ha,65
same,"Plant response rating, LS canarygrass",[10]; [23],10
same,LS canarygrass plant response rating,[10],15
same,"Plant response rating, LS canarygrass",[10]; [24],50
same,"Plant response rating, Wild buckwheat",[11]; Rate 62 g/ha,50
same,"Plant response rating, Wild buckwheat",[11]; [23],10
same,Wild buckwheat plant response rating,[11],10
same,"Plant response rating, Wild buckwheat",[11]; [24],0
same,"Plant response rating, Spanishneedles",[17]; [19],0
same,"Plant response rating, Spanishneedles",[17]; [20],0
same,Spanishneedles plant response rating,[17]; [21],0
same,Spanishneedles plant response rating,[17]; [22],0
same,"Plant response rating, Spanishneedles",[17]; Rate 250 g/ha,100
